Experimental data reported in ChEMBL document CHEMBL1139388, “Crystal structure of the Homo sapiens kynureninase-3-hydroxyhippuric acid inhibitor complex: insights into the molecular basis of kynureninase substrate specificity” (J Med Chem, 2009).
Active and inactive are the calls of the source. No cut-off for these calls is given here.

Target: T1, Kynureninase (Homo sapiens) (UniProt Q16719)
T1 sequence (whole entry): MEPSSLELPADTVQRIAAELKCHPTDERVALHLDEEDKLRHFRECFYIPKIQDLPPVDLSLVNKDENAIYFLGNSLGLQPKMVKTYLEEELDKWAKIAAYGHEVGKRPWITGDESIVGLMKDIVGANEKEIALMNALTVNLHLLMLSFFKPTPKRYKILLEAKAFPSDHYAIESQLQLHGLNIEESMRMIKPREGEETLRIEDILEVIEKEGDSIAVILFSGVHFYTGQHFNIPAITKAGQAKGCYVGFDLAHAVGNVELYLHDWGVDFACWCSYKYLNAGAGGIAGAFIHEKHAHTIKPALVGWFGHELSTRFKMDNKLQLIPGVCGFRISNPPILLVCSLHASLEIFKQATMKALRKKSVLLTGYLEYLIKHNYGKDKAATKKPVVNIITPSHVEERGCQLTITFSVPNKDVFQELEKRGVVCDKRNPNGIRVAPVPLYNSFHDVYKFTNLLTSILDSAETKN
Test: Inhibition of human kynureninase at 1 mM

Structure (SMILES) | Activity
O=C(O)CNC(=O)c1ccccc1 | inactive
Nc1c(O)cccc1C(=O)NCC(=O)O | inactive
